{
  "source": "patent US20230346773A1",
  "about": "“USE OF PCSK9 INHIBITOR IN PREPARATION OF PRODUCT FOR TREATING MULTIPLE DISEASES” (priority 2020, published 2023)",
  "key": {"[1]": {"test_system": "hair follicles / hair growth in depilated C57BL/6 mice", "assay": "Hair growth in C57BL/6 mice after rosin/paraffin depilation", "type": "in vivo", "description": "SPF grade C57BL/6 mice were selected and numbered according to their weight. They were randomly divided into compound group 1 (skin applied with 2% R-IMPP solution), compound group 2 (skin applied with 2% PF 06446846 solution), and compound group 3 (skin applied with 2% SBC-115076 solution), compound group 4 (skin applied with 2% SBC-110736 solution), monoclonal antibody group 1 (PCSK9subcutaneous injection monoclonal antibody ab81041, 5 mg/kg·d), monoclonal antibody group 2 (Subcutaneous injection of Evolocumab, 5 mg/kg·d), monoclonal antibody group 3 (subcutaneous injection of Alirocumab, 5 mg/kg·d), PCSK9 RNA interference group-1 (skin applied with 2% PCSK9 small interfering RNA-1 solution), PCSK9 RNA interference Group-2 (skin applied with 2% PCSK9 small interfering RNA-2 solution), PCSK9 RNA interference group-3 (skin applied with 2% PCSK9 small interfering RNA-3 solution), polypeptide group (subcutaneous injection of Abcam company ab32727, 3 mg/kg·d), positive control group (skin applied with 2% minoxidil solution), negative control group (skin applied with 60% ethanol), and model control group (skin applied with 60% ethanol), 10 mice in each group, half male and half female. After the mice were anesthetized with ether, they were coated on the back with a mixture of rosin and paraffin (1:1) after hot melting, and then peeled off after it solidified and hardened. The back of the mouse was cleaned to be hairless and without injuries. The depilation area was about 3 cm×4 cm. From the 2nd day after depilation, the corresponding drugs were applied to the hair removal area, twice a day, 0.5 mL per animal each time, and subcutaneously injected once a week.\nFrom the second day after application, observe the daily color change of the skin on the back of the mice to determine the growth state of the hair follicles and visually observe the hair growth in the depilation area, and score the new hair growth in the depilation area once a day. Five mice in each group were reserved for 40 days of visual observation, and the growth of back hair was recorded.\nOn the 17th day, five mice in each group were sacrificed by cervical dislocation. The samples were taken from the same part of the back parallel to the spine, fixed with 10% formaldehyde, dehydrated, embedded in paraffin, sectioned, stained with HE, and sealed with neutral gum. Then the histology of hair follicles was observed under light microscope, and morphological staging of hair follicles was performed. According to the international hair cycle scoring method, the hair follicles were scored as follows: 100 points for growth stage VI, 200 points for early regression, 300 points for middle regression, and 400 points for late regression. 50 hair follicles were randomly selected from each mouse, the cycle of the hair follicles in each group was determined, and the average hair cycle score and the percentage of hair follicles in the growth phase VI, early regression, middle regression, and late regression were calculated."}, "[2]": {"test_system": "androgenetic alopecia (SA) rat model", "assay": "Androgenetic alopecia (SA) rat model induced by testosterone propionate", "type": "in vivo, Wistar rats", "description": "SPF grade Wistar rats were selected and randomly divided into compound group 1 (skin applied with 5% R-IMPP solution), compound group 2 (skin applied with 5% PF 06446846 solution), and compound group 3 (skin applied with 5% SBC-115076 solution), compound group 4 (skin applied with 5% SBC-110736 solution), monoclonal antibody group 1 (subcutaneous injection of PCSK9 monoclonal antibody ab84041, 5 mg/kg·d), monoclonal antibody group 2 (subcutaneous injection of Evolocumab, 5 mg/kg·d), monoclonal antibody group 3 (subcutaneous injection of Alirocumab, 5 mg/kg·d), PCSK9 RNAi inhibitor group-1 (skin applied with 5% PCSK9 small interfering RNA-1 solution), PCSK9 RNAi inhibitor group-2 (skin applied with 5% PCSK9 small interfering RNA-2 solution), PCSK9 RNAi inhibitor group-3 (skin applied with 5% PCSK9 small interfering RNA-3 solution), and polypeptide group (subcutaneous injection of Abcam company ab32727, 3 mg/kg·d), positive control group (skin smeared with 5% minoxidil tincture), negative control group (smeared with 75% ethanol), model control group (smeared with 75% ethanol), 10 rats in each group, half male and half female.\nBefore the experiment, each rat selected an area of 4 cm×5 cm on the back to remove the hair as the observation area. Except for the negative control group, the rats were subcutaneously injected with testosterone propionate injection [[…]] at the back of the neck, once a day for 60 consecutive days to establish the SA model. […] At the same time, the rats in the corresponding drug group were smeared or subcutaneously injected on the skin of the observation area of the rats in the drug group, smeared 1 ml/(per time), twice a day, with an interval of 8 hours, and administered by subcutaneous injection, once a day. The negative control group and the model control group were smeared with excipient (75% ethanol solution), 1 mL one rat per time, twice a day, for 60 consecutive days.\n10 hairs were extracted from the observation area on the back of each rat every 15 days after administration, and the hair length was measured with a vernier caliper. After 60 days of administration, the skin of the experimental observation area was taken for routine tissue dehydration, paraffin embedding, HE staining, and light microscopy to observe the histopathological changes of the rat skin hair follicles and sebaceous glands. Semi-quantitative analysis was carried out in each group. The grading standards are as follows: normal skin dermal tissue cells, subcutaneous hair follicles, and sebaceous glands were marked as “one”; no hyperplasia in the dermis, limited lesions of hair follicles and sebaceous glands, and no subcutaneous inflammation, marked as “±”; no obvious hyperplasia found in the dermis, obviously cystic follicles, no obvious hyperplasia found in the sebaceous glands, and no inflammation is recorded as “+”; segmental hyperplasia of skin and dermis was not obvious, a small number of hair follicles had cystic degeneration, and sebaceous glands had mild hyperplasia and hypertrophy. No obvious inflammation under the skin was recorded as “++”; the skin and dermis tissue cells had segmental hyperplasia of different degrees, some follicles degenerated, the size of the hair follicles was uneven, and there were no cells in the periphery. There was hyperplasia of sebaceous glands, and there were few nuclei in the hyperplasia glands. Individual rats had mild inflammatory hyperplasia under the skin, which was marked as “+++”."}, "[3]": {"settings": "hair removal area on the back of mice, after hair removal"}},
  "note": "Marks after values point to notes of the source that are not given here.",
  "data": [
    {"smiles": "Nc1cc(N2CCCCC2)nc(N)[n+]1[O-]", "note": "[Positive control group, minoxidil]", "values": [
      {"measurement": "percentage of hair follicles in the growth stage VI", "setting": "[1]; 17th day after hair plucking", "result": 42, "unit": "%"},
      {"measurement": "average hair cycle score", "setting": "[1]; 17th day after hair plucking, 100 points growth stage VI, 200 early, 300 middle, 400 late regression", "result": 185},
      {"measurement": "Time from hair growth to the same length as the hair in the non-experimental area", "setting": "[1]; back hair removal area of mice", "result": 15.77, "unit": "days"},
      {"measurement": "Time to grow new hair", "setting": "[1]; back hair removal area of mice", "result": 7.85, "unit": "days"},
      {"measurement": "Time to match the length of hair in the non-experimental area", "setting": "[1]; back hair removal area of mice", "result": 23.62, "unit": "days"},
      {"measurement": "Black skin duration", "setting": "[1]; hair removal area on the back of mice", "result": 12.80, "unit": "days"},
      {"measurement": "Skin black-turning time", "setting": "[1]; [3]", "result": "6.29* days"},
      {"measurement": "Skin grayish-black-turning time", "setting": "[1]; [3]", "result": "19.09* days"},
      {"measurement": "Skin hair follicles and sebaceous glands: number of rats graded ++", "setting": "[2]; 10 rats, after 60 days, few follicles with cystic degeneration, sebaceous glands mild hyperplasia and hypertrophy", "result": 2},
      {"measurement": "Skin hair follicles and sebaceous glands: number of rats graded ±", "setting": "[2]; 10 rats, after 60 days, no hyperplasia in the dermis, limited lesions of hair follicles and sebaceous glands, no subcutaneous inflammation", "result": 3},
      {"measurement": "Skin hair follicles and sebaceous glands: number of rats graded +", "setting": "[2]; 10 rats, after 60 days, no obvious hyperplasia in dermis, obviously cystic follicles, no inflammation", "result": 5},
      {"measurement": "Skin hair follicles and sebaceous glands: number of rats graded −", "setting": "[2]; 10 rats, after 60 days, normal skin dermal tissue cells, subcutaneous hair follicles and sebaceous glands", "result": 0},
      {"measurement": "Skin hair follicles and sebaceous glands: number of rats graded +++", "setting": "[2]; 10 rats, after 60 days, segmental hyperplasia, degenerated follicles, hyperplasia of sebaceous glands, mild inflammatory hyperplasia", "result": 0},
      {"measurement": "15 d hair length", "setting": "[2]; rats, 15 days after administration", "result": "7.9* mm"},
      {"measurement": "30 d hair length", "setting": "[2]; rats, 30 days after administration", "result": "8.4* mm"},
      {"measurement": "45 d hair length", "setting": "[2]; rats, 45 days after administration", "result": "12.8* mm"},
      {"measurement": "60 d hair length", "setting": "[2]; rats, 60 days after administration", "result": "14.9* mm"}
    ]}
  ]
}
